Laboratory results taken from PMC3756528 (Biochemistry, 2013).

Columns and labels:
RsTSPOW38C = biological target: T1, RsTSPOW38C (Cereibacter sphaeroides, UniProt Q9RFC8, W38C); experiment: Tryptophan fluorescence quenching binding assay, purified RsTSPOW38C mutant; parameters: species or system Rhodobacter sphaeroides; settings: for decrease in binding affinity by the W38C mutation: RsTSPOW38C versus wild-type RsTSPO
T1 sequence (Q9RFC8 1-158 W38C): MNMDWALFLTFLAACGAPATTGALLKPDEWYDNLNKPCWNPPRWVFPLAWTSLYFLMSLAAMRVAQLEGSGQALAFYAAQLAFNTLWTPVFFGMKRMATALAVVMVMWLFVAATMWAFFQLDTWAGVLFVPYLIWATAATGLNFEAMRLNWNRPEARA

RsTSPO [1] = biological target: T2, RsTSPO (Cereibacter sphaeroides, UniProt Q9RFC8); experiment: Tryptophan fluorescence quenching binding assay, purified wild-type RsTSPO; parameters: species or system Rhodobacter sphaeroides; settings: for quenching of the tryptophan fluorescence: compared to that of PpIX
T2 sequence (Q9RFC8 1-158): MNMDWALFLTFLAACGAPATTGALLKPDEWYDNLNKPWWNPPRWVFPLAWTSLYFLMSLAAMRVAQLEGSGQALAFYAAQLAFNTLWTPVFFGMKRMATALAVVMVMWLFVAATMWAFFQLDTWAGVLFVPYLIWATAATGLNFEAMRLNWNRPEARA

RsTSPO [2] = biological target: T2, RsTSPO; settings: cited from earlier work
RsTSPO [3] = biological target: T2, RsTSPO; experiment: Competition binding assay of PpIX, PK11195 and cholesterol with purified RsTSPO; parameters: species or system Rhodobacter sphaeroides
SEC = biological target: the molecule itself; experiment: SEC

CC(C)CCC[C@@H](C)[C@H]1CC[C@H]2[C@@H]3CC=C4C[C@@H](O)CC[C@]4(C)[C@H]3CC[C@]12C [Cholesterol]
Kd (RsTSPOW38C; Kapp to RsTSPOW38C, estimated from half-maximal quenching): ~200 µM
Kd (RsTSPO [1]; Kapp to RsTSPO, estimated from half-maximal quenching): ~80 µM

CCC(C)N(C)C(=O)c1cc2ccccc2c(-c2ccccc2Cl)n1 (stereo not drawn) [PK11195]
decrease in binding affinity by the W38C mutation (RsTSPOW38C): 3 fold
binding of PK11195 to wild-type RsTSPO (RsTSPO [2]): no binding affinity above background

C[C@H](CCC(=O)O)[C@H]1CC[C@H]2[C@@H]3[C@@H](O)C[C@@H]4C[C@H](O)CC[C@]4(C)[C@H]3CC[C@]12C [ursodeoxycholate]
affinity for RsTSPO (RsTSPO [1]): no detectable affinity
quenching of the tryptophan fluorescence (RsTSPO [1]): only a small quenching

C=CC1=C(C)c2cc3[nH]c(cc4nc(cc5[nH]c(cc1n2)c(C)c5CCC(=O)O)C(CCC(=O)O)=C4C)c(C)c3C=C [PpIX, Protoporphyrin IX]
decrease in binding affinity by the W38C mutation (RsTSPOW38C): 6 fold
increase in the Kd of PpIX (RsTSPO [3]; RsTSPO preincubated with 20 μM PK11195): ~3 fold
increase in the Kd of PpIX (RsTSPO [3]; RsTSPO preincubated with 20 μM PK11195 and 50 μM cholesterol together): ~4 fold
maximal quenching of tryptophan fluorescence (RsTSPO [1]; Rs- and HsTSPO, 290 to 400 nm): ~100%

NCC(=O)CCC(=O)O [ALA, δ-aminolevulinic acid]
quenching of the tryptophan fluorescence (RsTSPO [1]): only a small quenching

B1: RsTSPOW38C, W38C mutant of Translocator Protein 18 kDa from Rhodobacter sphaeroides (natural protein, UniProt Q9RFC8 1-158, looked up)
chain: MNMDWALFLTFLAACGAPATTGALLKPDEWYDNLNKPCWNPPRWVFPLAWTSLYFLMSLAAMRVAQLEGSGQALAFYAAQLAFNTLWTPVFFGMKRMATALAVVMVMWLFVAATMWAFFQLDTWAGVLFVPYLIWATAATGLNFEAMRLNWNRPEARA
binding result (SEC): binds
